{
  "source": "patent US20240415791A1",
  "about": "“Therapeutic methods and compositions for treating cancer using devimistat and a fatty acid oxidation inhibitor, a tyrosine kinase inhibitor, a glutaminase inhibitor, and/or a glycolysis inhibitor” (Cornerstone Pharmaceuticals, Inc., priority 2021, published 2024)",
  "format_in_all_cases": "cell-based, human",
  "key": {"AsPC1 cells [1]": {"test_system": "AsPC1 cells", "test": "Acute ATP synthesis rescue by exogenous carbon sources in AsPC1 cells treated with devimistat and GPi", "conditions": "AsPC1, 50 μM GPi, 60 μM devimistat, 50 μM oleic acid"}, "AsPC1 cells [2]": {"test_system": "AsPC1 cells", "test": "Devimistat-induced cell death (ATP after recovery) in AsPC1 cells", "conditions": "AsPC1, nutrient-free CBS2, treatment followed by recovery in serum-free RPMI", "experimental": "Cells were plated at 80% confluency in complete RPMI in black, clear bottom 96-well plates or 35-mm dishes for ATP, protein and glycogen analysis, or glass coverslips for fluorescence visualization. […] Prior to drug treatment, cells were incubated in a nutrient-free carbonate buffered salt solution (CBS2) for 3 hours. Drug treatments were then carried out in CBS2 with addition of nutrient sources and/or chemical agents as described in the Examples and Figures.\n(§1) LOGIC: High throughput, plate reader assays for cell death essentially always ultimately depend on metabolic activity of cells to identify viability, directly or indirectly. Thus, strong inhibition of metabolic activity by anti-metabolism agents like those described herein can confound cell death analysis by such assays. […] The inventors thus used a recovery-based assay wherein cells are treated with anti-metabolic agents under conditions where mitochondrial metabolism is (or becomes) limiting on viability. After experimental treatment, drug and media are removed and cells are allowed to recover in serum-free RPMI. RPMI provides high levels of glucose in support of glycolytic ATP generation (independently of mitochondrial function), allowing viable cells to recover ATP levels that are ultimately measured in the plate assay to score cell viability.\nSurvival is assessed by conventional luminescence measurement of ATP levels after this recovery.\nTECHNICAL DETAILS: Immediately after drug treatments, acute ATP levels of cells in black, clear bottom 96-well plates were measured using the CellTiter-Glo® Luminescent Cell Viability Assay (catalog #G775B) following Promega (Madison, WI) protocols. […] After this recovery period ATP levels were measured using the CellTiter-Glo® Luminescent Cell Viability Assay as described above.\nSurvival is assessed by conventional luminescence measurement of ATP levels after this recovery. See the Methods section above for a detailed description of this assay and its validation."}, "PANC1 cells": {"test_system": "PANC1 cells", "test": "Devimistat-induced cell death (ATP after recovery) in PANC1 cells", "conditions": "PANC1, nutrient-free CBS2, treatment followed by recovery in serum-free RPMI", "experimental": "Cells were plated at 80% confluency in complete RPMI in black, clear bottom 96-well plates or 35-mm dishes for ATP, protein and glycogen analysis, or glass coverslips for fluorescence visualization. To create low nutritional conditions, cells were seeded in complete media, after 24 hours cells were transferred to serum free RPMI for 18-24 hours. Prior to drug treatment, cells were incubated in a nutrient-free carbonate buffered salt solution (CBS2) for 3 hours. Drug treatments were then carried out in CBS2 with addition of nutrient sources and/or chemical agents as described in the Examples and Figures.\nas §1, with “cell viability. Under these conditions, cells that are committed to execution of cell death by the experimental treatment score as dead and cells that have not committed to cell death recover ATP levels and score as viable.” for “cell viability.”\nSpecifically, after exposure to the treatments indicated, cells are allowed to recover ([…]) in RPMI without serum. Survival is assessed by conventional luminescence measurement of ATP levels after this recovery.\nTECHNICAL DETAILS: Immediately after drug treatments, acute ATP levels of cells in black, clear bottom 96-well plates were measured using the CellTiter-Glo® Luminescent Cell Viability Assay (catalog #G775B) following Promega (Madison, WI) protocols. To assess cell viability, after drug treatments, drug/agent-containing medium was replaced with serum-free RPMI and cells were incubated for an additional 17-24 hours to allow recovery of viable cells, without additional cell division. After this recovery period ATP levels were measured using the CellTiter-Glo® Luminescent Cell Viability Assay as described above.\nA. Exogenous glucose protects from devimistat-induced cell death. Four different cell lines were exposed for 15 hours (PANC1, AsPC1, H460) or 8 hours (PC3) to the indicated range of devimistat doses in the absence of exogenous nutrients (in carbonate buffered balanced salts solution, CBS2) after 3 hours of preincubation in CBS2 (for cell adaptation and to equilibrate soluble nutrient pools). Cells were exposed to the treatments indicated, followed by recovery (24 hours) in RPMI without serum (providing nutrient support for viable cell recovery, without serum factors for cell division). Survival is assessed by conventional luminescence measurement of ATP levels after this recovery. […] The relatively large quantitative differences in devimistat sensitivity between cell lines under exogenous nutrient deprivation are characteristic of each line (see examples below), with small experiment-to-experiment variation. […]"}, "AsPC1 cells [3]": {"test_system": "AsPC1 cells", "test": "Glycogen content in AsPC1 cells", "conditions": "AsPC1, CBS2, 3 hours", "experimental": "Glycogen was quantified using the Glycogen Assay Kit II (colorimetric) from AbCam (ab169558) according to manufacturer's instructions. Briefly, approximately 2×10^6 cells were washed with ice-cold PBS and collected via scraping in 300 μL ice-cold ddH2O. Cells were immediately sonicated on ice for 5× […] pulses with a probe sonicator (Misonix Inc, model XL2000), then heated to 80° C. for 10 min. Samples were stored O/N at −20° C., then thawed, centrifuged at 12,000×g for 10 min and the supernatants collected for glycogen hydrolysis and quantification according to manufacturer's instructions.\nC. […] Cells were treated in CBS2 for 3 hours with 30 μM devimistat or mock treated (FIG. 2C, left), or treated for 3 hours with the indicated devimistat doses (FIG. 2C, right).\nD. Effects of anti-metabolism agents on glycogen consumption in PANC1 and AsPC1 cells. […] Glycogen content was measured in cell lysates (see Methods, above) and the results are presented in the left and middle graphs in FIG. 3D (note the different vertical scales for PANC1 and AsPC1 plots)."}, "[4]": {"test_system": "H460, PC3 and SW620 cells", "test": "Devimistat cell killing with thioridazine in other cell lines", "conditions": "10 μM devimistat, 21 hours treatment, 22 hours recovery"}, "AsPC1 cells [5]": {"test_system": "AsPC1 cells", "test": "CO2 release from 14C-oleic acid in AsPC1 cells", "conditions": "AsPC1, CBS2, 50 μM GPi, 40 μM oleic acid"}},
  "note": "“Also recorded” adds a separate entry of the source.",
  "data": [
    {"smiles": "CSc1ccc2c(c1)N(CCC1CCCCN1C)c1ccccc1S2", "note": "(stereo not drawn) [TZ, 2-methylmercapto-10-[2-(N-methyl-2-piperidyl)ethyl] phenothiazine]", "values": [
      {"measurement": "inhibition of oleic acid (OA)-driven acute ATP synthesis / OA rescue", "setting": "AsPC1 cells [1]", "value": "strongly inhibited"},
      {"measurement": "sensitization to devimistat-induced cell death, agent combined with devimistat", "setting": "AsPC1 cells [2]", "value": "Synergy observed; also recorded: enhances devimistat effects"},
      {"measurement": "sensitization to devimistat-induced cell death, agent combined with devimistat", "setting": "PANC1 cells", "value": "Synergy observed"},
      {"measurement": "glycogen consumption", "setting": "AsPC1 cells [3]", "value": "accelerates glycogen consumption"},
      {"measurement": "enhancement of devimistat cell killing", "setting": "[4]", "value": "enhances devimistat cell killing"},
      {"measurement": "oleic acid beta-oxidation (CO2 release from oleate)", "setting": "AsPC1 cells [5]", "value": "block oleic acid beta-oxidation"}
    ]}
  ]
}
